Data as given in patent US7211579B2, “NK-1 receptor antagonists” (Hoffmann-La Roche Inc., priority 2005, dated 2007).
≈ marks a conversion by molar mass, not a printed value.

How the values were obtained:
[1] = Metabolic stability in vitro in microsomes; type: in vitro ADME; conditions: in comparison with 2-(3,5-bis-trifluoromethyl-phenyl)-N-methyl-N-[6-(4-methyl-piperazin-1-yl)-4-o-tolyl-pyridin-3-yl]-isobutyramide
[2] = target: T1, human NK1 receptors (Homo sapiens, UniProt P25103); experiment: NK1 receptor binding, [3H]substance P displacement; conditions: human NK1 receptor in CHO cells, [3H]substance P 0.6 nM; read-out: affinity to the NK-1 receptor, given as pKi (converted)
T1 construct: expressed in transfected cells; host or cells: CHO cells infected using the Semliki virus expression system; membrane suspension used
Method: The compounds were investigated in accordance with the tests given hereinafter. The affinity of test compounds for the NK1 receptor was evaluated at human NK1 receptors in CHO cells infected with the human NK1 receptor (using the Semliki virus expression system) and radiolabelled with [^3H]substance P (final concentration 0.6 nM). Binding assays were performed in HEPES buffer (50 mM, pH 7.4) containing BSA (0.04%) leupeptin (8 μg/ml), MnCl2 (3 mM) and phosphoramidon (2 μM). Binding assays consisted of 250 μl of membrane suspension (1.25×10^5 cells/assay tube), […] of buffer of displacing agent and 125 μl of [^3H]substance P. Displacement curves were determined with at least seven concentrations of the compound. The assay tubes were incubated for 60 min at room temperature after which time the tube contents were rapidly filtered under vacuum through GF/C filters presoaked for 60 min with PEI (0.3%) with 2×2 ml washes of HEPES buffer (50 mM, pH 7.4). The radioactivity retained on the filters was measured by scintillation counting. All assays were performed in triplicate in at least 2 separate experiments.
The affinity to the NK-1 receptor, given as pKi is described in the table below: […]

[3] = PAMPA PSR4p permeability assay; type: in vitro ADME; conditions: for Acceptor (sample distribution) / Donor (sample distribution) / Membrane (sample distribution) / PE (permeation constant) / PE class: pH 6.5, DMSO stock solution
Method: The permeability has been searched by the PAMPA PSR4p assay, which is based on 96 well microplates. The permeability is measured using a “sandwich” construction. A filterplate is coated with phospholipids (membrane) and placed into a donor plate containing a drug/buffer solution. Finally the filterplate is filled with buffer solution (acceptor). The donor concentration is measured at t-start (reference) and compared with the donor and acceptor concentration after a certain time t-end.
The following setup is used for the PAMPA PSR4p assay: • Donor: 0.05 M MOPSO buffer at ph 6.5+0.5% (w/v) Glyco cholic acid • Membrane: 10% (w/v) Egg lecithin+0.5% (w/v) cholesterol in dodecane • Acceptor: 0.05 MOPSO buffer at pH 6.5
The liquid handling is done with a TECAN RSP150 pipetting robot. The drug analysis is based on UV spectroscopy. All samples are transferred into 96 well UV plates. A SpectralMax 190 UV plate reader is used to collect the UV spectras.
The pipetting steps can be divided into four parts: 1. Dilution of stock solutions and filtration, 2. Preparation of reference and PAMPA PSR4p sandwich, 3. Transfer of acceptor solutions into UV plate, 4. Transfer of donor solutions into UV plate. The PAMPA PSR4p assay contains information about the sample precipitation in the donor buffer UV spectras of the sample, read at the start of the assay (t-start: reference) and at the end (t-end: donor, acceptor) allow the determination of a sample distribution in donor, membrane and acceptor. Because of the known permeation time (t-end, t-start) a permeation constant can be retrieved.

[4] = Equilibrium solubility; type: physicochemical; conditions: for solubility at 24 h: 21 °C, aqueous buffer, thermodynamic from solid
Method: Method Description Equilibrium Solubility
[…] A known amount of drug, generally 1–2 mg, was added to 250 μl of buffer (glass tubes), and the resulting suspension was stirred for 2 h (21° C.), after 5 minutes of sonification. The pH of the solution was checked and corrected if necessary (in case of pH correction, the solution was once more shaken and equilibrated), and after 24 h the suspension was filtered through a 0.65-μm filter. The filtered solution was then assayed by HPLC to determine the drug concentration. In cases where the drug had completely dissolved in the buffer, the value for equilibrium solubility was assumed to be higher than the value determined by HPLC and was reported as such. Stock solutions (˜1 mg/ml) in DMSO were used in the preparation of a calibration curve in the related buffer using HPLC analytics.

[5] = buffer 0.05 M Phosphate, pH 6.5 (EP 1 035 115) / pH 6.7 (Compound I-2)

T1 sequence (P25103 whole entry): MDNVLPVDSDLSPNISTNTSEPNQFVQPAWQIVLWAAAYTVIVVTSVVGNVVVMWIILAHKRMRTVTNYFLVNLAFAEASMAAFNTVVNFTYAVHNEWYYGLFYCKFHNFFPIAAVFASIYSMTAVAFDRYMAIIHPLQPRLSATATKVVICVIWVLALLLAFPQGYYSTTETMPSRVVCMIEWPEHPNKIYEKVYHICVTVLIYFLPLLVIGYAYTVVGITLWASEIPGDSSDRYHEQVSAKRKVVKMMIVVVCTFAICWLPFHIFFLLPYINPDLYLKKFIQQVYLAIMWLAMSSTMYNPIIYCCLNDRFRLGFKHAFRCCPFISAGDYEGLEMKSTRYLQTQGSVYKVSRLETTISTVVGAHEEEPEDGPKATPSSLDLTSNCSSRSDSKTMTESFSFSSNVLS

## Cc1ccccc1-c1cc(N2CC[N+](C)([O-])CC2)ncc1N(C)C(=O)C(C)(C)c1cc(C(F)(F)F)cc(C(F)(F)F)c1 [Compound I-1, 2-(3,5-Bis-trifluoromethyl-phenyl)-N-methyl-N-[6-(4-methyl-4-oxy-piperazin-1-yl)-4-o-tolyl-pyridin-3-yl]-isobutyramide]
[1]
  metabolic stability in vitro in microsomes: higher metabolic stability
[2]
  Ki: 1 nM

## CN1CCN(c2cc(-c3ccccc3CO)c(N(C)C(=O)C(C)(C)c3cc(C(F)(F)F)cc(C(F)(F)F)c3)cn2)CC1 [Compound I-2, 2-(3,5-Bis-trifluoromethyl-phenyl)-N-[4-(2-hydroxymethyl-phenyl)-6-(4-methyl-piperazin-1-yl)-pyridin-3-yl]-N-methyl-isobutyramide]
[3]
  permeation speed compared with the corresponding compound of EP 1 035 115: three times higher
  Acceptor (sample distribution): 3%
  Donor (sample distribution): 26%
  Membrane (sample distribution): 72%
  PE (permeation constant): 1.81 cm/s × 10^−6
  PE class: high
[4]
  solubility, fold higher than the compared compound disclosed in EP 1035 115: 8 fold
[4]; [5]
  solubility at 24 h: 8 µg/mL (≈ 13.5 µM)
[4]; buffer 0.15 M Citrate, pH 4.1
  solubility at 24 h: 200 µg/mL (≈ 336 µM)
[2]
  Ki: 0.794 nM

## Cc1ccccc1-c1cc(N2CCN(C)CC2)ncc1N(C)C(=O)C(C)(C)c1cc(C(F)(F)F)cc(C(F)(F)F)c1 [EP 1 035 115, 2-(3,5-bis-trifluoromethyl-phenyl)-N-methyl-N-[6-(4-methyl-piperazin-1-yl)-4-o-tolyl-pyridin-3-yl]-isobutyramide, reference compound]
[3]
  Acceptor (sample distribution): 2%
  Donor (sample distribution): 50%
  Membrane (sample distribution): 49%
  PE (permeation constant): 0.56 cm/s × 10^−6
  PE class: medium
[4]; [5]
  solubility at 24 h: 1 µg/mL (≈ 1.73 µM)
[4]; buffer 0.15 M Citrate, pH 4.1
  solubility at 24 h: 26 µg/mL (≈ 44.9 µM)
